# Reference: patent publication US20260042731A1, “(2,4-DICHLOROPHENOXY)ACETIC ACID ANALOGS” (CORTEVA AGRISCIENCE LLC, priority 2022, published 2026)
# Where two headings read alike, the source gives them in different places.
# Tests used:
# [1] = test system: Chenopodium album (CHEAL), common lambsquarters; assay: Postemergence herbicide evaluation, growth of Chenopodium album (CHEAL); assay type: in vivo; conditions: Chenopodium album, post-emergence, percent reduction in plant size vs untreated control, read-out: Ave. CHEAL; for pest or weed control at 280 g/ha: 280 g ae/ha; for pest or weed control at 560 g/ha: 560 g ae/ha
# [2] = Volatility of compounds measured by thermogravimetric analysis (TGA); assay type: physicochemical
# [3] = test system: Amaranthus rudis (AMATA), tall water hemp; assay: Postemergence herbicide evaluation, growth of Amaranthus rudis (AMATA); assay type: in vivo; conditions: Amaranthus tuberculatus, post-emergence, percent reduction in plant size vs untreated control, read-out: Ave. AMATA; for pest or weed control at 280 g/ha: 280 g ae/ha; for pest or weed control at 560 g/ha: 560 g ae/ha
# [4] = test system: weeds ABUTH, AMATA, AMBEL, CHEAL, ERICA; assay: Postemergence herbicide evaluation, overall average % weed control across ABUTH, AMATA, AMBEL, CHEAL and ERICA; assay type: in vivo; conditions: post-emergence, average over five weeds, read-out: Overall Ave % Weed Control; for pest or weed control at 280 g/ha: 280 g ae/ha; for pest or weed control at 560 g/ha: 560 g ae/ha
# Velvetleaf (ABUTH) = assay: Greenhouse post-emergence mixture trials, percent visual control; assay type: in vivo; conditions: ABUTH, 21 DAA; for pest or weed control at 560 g/ha / pest or weed control at 1120 g/ha: Abutilon theophrasti, post-emergence, 504 h; for pest or weed control at 560 g/ha: compound 560 g ae/ha; for pest or weed control at 1120 g/ha: compound 1120 g ae/ha, read-out: % Control
# [5] = test system: Ambrosia artemisiifolia (AMBEL), common ragweed; assay: Postemergence herbicide evaluation, growth of Ambrosia artemisiifolia (AMBEL); assay type: in vivo; conditions: Ambrosia artemisiifolia, post-emergence, percent reduction in plant size vs untreated control, read-out: AVE. AMBEL; for pest or weed control at 280 g/ha: 280 g ae/ha; for pest or weed control at 560 g/ha: 560 g ae/ha
# [6] = test system: Common Lambsquarters (CHEAL); assay: Greenhouse post-emergence mixture trials, percent visual control; assay type: in vivo; conditions: CHEAL, 21 DAA; for pest or weed control at 560 g/ha / pest or weed control at 1120 g/ha: Chenopodium album, post-emergence, 504 h, no mixing partner; for pest or weed control at 1120 g/ha: read-out: % Control
# Corn (ZEAMX) = assay: as above; assay type: in vivo; conditions: ZEAMX, 21 DAA, no mixing partner; for % Control / plant injury at 560 g/ha: compound 560 g ae/ha
# [7] = test system: glyphosate resistant Conyza canadensis (L.) (ERICA), horseweed; assay: Postemergence herbicide evaluation, growth of Conyza canadensis (ERICA); assay type: in vivo; conditions: Erigeron canadensis, post-emergence, percent reduction in plant size vs untreated control, read-out: Ave. ERICA; for pest or weed control at 280 g/ha: 280 g ae/ha; for pest or weed control at 560 g/ha: 560 g ae/ha
# [8] = test system: Abutilon theophrasti (ABUTH), velvetleaf; assay: Postemergence herbicide evaluation, growth of Abutilon theophrasti (ABUTH); assay type: in vivo; conditions: Abutilon theophrasti, post-emergence, percent reduction in plant size vs untreated control, read-out: AVE. ABUTH; for pest or weed control at 280 g/ha: 280 g ae/ha; for pest or weed control at 560 g/ha: 560 g ae/ha
# [9] = no mixing partner, Trial Bridge 3
# [10] = Trial Bridge 1, mixing partner none
# [11] = Trial Bridge 2, no mixing partner
# [12] = Trial Bridge 1, compound 560 g ae/ha + Arylex 5 g ai or ae/ha
# [13] = Trial Bridge 1, compound 560 g ae/ha + Mesotrione 150 g ai or ae/ha
# [14] = Trial Bridge 1, compound 1120 g ae/ha + Arylex 5 g ai or ae/ha
# [15] = Trial Bridge 1, compound 1120 g ae/ha + Glufosinate 600 g ai or ae/ha
# [16] = Trial Bridge 1, compound 1120 g ae/ha + Mesotrione 150 g ai or ae/ha
# [17] = Trial Bridge 2, compound 560 g ae/ha + Saflufenacil 25 g ai or ae/ha
# [18] = Trial Bridge 2, compound 560 g ae/ha + Saflufenacil 75 g ai or ae/ha
# [19] = Trial Bridge 2, compound 560 g ae/ha + Trifludimoxazin 12.5 g ai or ae/ha
# [20] = Trial Bridge 2, compound 560 g ae/ha + Trifludimoxazin 50 g ai or ae/ha
# [21] = Trial Bridge 2, compound 1120 g ae/ha + Saflufenacil 25 g ai or ae/ha
# [22] = Trial Bridge 2, compound 1120 g ae/ha + Saflufenacil 75 g ai or ae/ha
# [23] = Trial Bridge 2, compound 1120 g ae/ha + Trifludimoxazin 12.5 g ai or ae/ha
# [24] = Trial Bridge 2, compound 1120 g ae/ha + Trifludimoxazin 50 g ai or ae/ha
smiles,measurement,setting,value
O=C(COc1ccc(Cl)cc1Cl)Nc1cccnc1 [Compound D27],pest or weed control at 280 g/ha,"[1]; 168 h, 7 DAA",82.5%
same,pest or weed control at 560 g/ha,"[1]; 168 h, 7 DAA",80%
same,pest or weed control at 280 g/ha,"[1]; 336 h, 14 DAA",85%
same,pest or weed control at 560 g/ha,"[1]; 336 h, 14 DAA",97.5%
same,pest or weed control at 280 g/ha,"[1]; 504 h, 21 DAA",94%
same,pest or weed control at 560 g/ha,"[1]; 504 h, 21 DAA",97.5%
same,"TGA Data (rate of weight loss, volatility)",[2],0.01 µg/min
same,pest or weed control at 280 g/ha,"[3]; 168 h, 7 DAA",80%
same,pest or weed control at 560 g/ha,"[3]; 168 h, 7 DAA",92%
same,pest or weed control at 280 g/ha,"[3]; 336 h, 14 DAA",92.5%
same,pest or weed control at 560 g/ha,"[3]; 336 h, 14 DAA",90%
same,pest or weed control at 280 g/ha,"[3]; 504 h, 21 DAA",85%
same,pest or weed control at 560 g/ha,"[3]; 504 h, 21 DAA",100%
same,pest or weed control at 280 g/ha,"[4]; 168 h, 7 DAA",78%
same,pest or weed control at 560 g/ha,"[4]; 168 h, 7 DAA",84.4%
same,pest or weed control at 280 g/ha,"[4]; 336 h, 14 DAA",87.3%
same,pest or weed control at 560 g/ha,"[4]; 336 h, 14 DAA",97%
same,pest or weed control at 280 g/ha,"[4]; 504 h, 21 DAA",94.9%
same,pest or weed control at 560 g/ha,"[4]; 504 h, 21 DAA",99.3%
same,% Control,"Velvetleaf (ABUTH); compound 560 g ae/ha + Sulfentrazone 347 g ai/ha, Trial Bridge 3",100%
same,% Control,"Velvetleaf (ABUTH); compound 1120 g ae/ha + Sulfentrazone 130 g ai/ha, Trial Bridge 3",100%
same,% Control,"Velvetleaf (ABUTH); compound 1120 g ae/ha + Sulfentrazone 347 g ai/ha, Trial Bridge 3",100%
same,pest or weed control at 560 g/ha,Velvetleaf (ABUTH); [9],100%
same,pest or weed control at 1120 g/ha,Velvetleaf (ABUTH); [9],99%
same,pest or weed control at 560 g/ha,Velvetleaf (ABUTH); [10],100%
same,pest or weed control at 1120 g/ha,Velvetleaf (ABUTH); [10],100%
same,pest or weed control at 560 g/ha,Velvetleaf (ABUTH); [11],100%
same,pest or weed control at 1120 g/ha,Velvetleaf (ABUTH); [11],100%
same,% Control,Velvetleaf (ABUTH); [12],100%
same,% Control,"Velvetleaf (ABUTH); Trial Bridge 1, compound 560 g ae/ha + Glufosinate 600 g ai or ae/ha",100%
same,% Control,"Velvetleaf (ABUTH); Trial Bridge 1, compound 560 g ae/ha + Glyphosate 1120 g ai or ae/ha",100%
same,% Control,Velvetleaf (ABUTH); [13],100%
same,% Control,"Velvetleaf (ABUTH); Trial Bridge 1, compound 560 g ae/ha + diclosulam 35 g ai or ae/ha",100%
same,% Control,Velvetleaf (ABUTH); [14],100%
same,% Control,Velvetleaf (ABUTH); [15],100%
same,% Control,"Velvetleaf (ABUTH); Trial Bridge 1, compound 1120 g ae/ha + Glyphosate 1120 g ai or ae/ha",100%
same,% Control,Velvetleaf (ABUTH); [16],100%
same,% Control,"Velvetleaf (ABUTH); Trial Bridge 1, compound 1120 g ae/ha + diclosulam 35 g ai or ae/ha",100%
same,% Control,Velvetleaf (ABUTH); [17],100%
same,% Control,Velvetleaf (ABUTH); [18],100%
same,% Control,Velvetleaf (ABUTH); [19],100%
same,% Control,Velvetleaf (ABUTH); [20],100%
same,% Control,Velvetleaf (ABUTH); [21],100%
same,% Control,Velvetleaf (ABUTH); [22],100%
same,% Control,Velvetleaf (ABUTH); [23],100%
same,% Control,Velvetleaf (ABUTH); [24],100%
same,pest or weed control at 280 g/ha,"[5]; 168 h, 7 DAA",85%
same,pest or weed control at 560 g/ha,"[5]; 168 h, 7 DAA",85%
same,pest or weed control at 280 g/ha,"[5]; 336 h, 14 DAA",77.5%
same,pest or weed control at 560 g/ha,"[5]; 336 h, 14 DAA",99%
same,pest or weed control at 280 g/ha,"[5]; 504 h, 21 DAA",100%
same,pest or weed control at 560 g/ha,"[5]; 504 h, 21 DAA",100%
same,% Control,[6]; [17],100%
same,% Control,[6]; [18],100%
same,% Control,[6]; [19],100%
same,% Control,[6]; [20],100%
same,% Control,[6]; [21],100%
same,% Control,[6]; [22],100%
same,% Control,[6]; [23],100%
same,% Control,[6]; [24],100%
same,% Control,"[6]; Trial Bridge 3, compound 560 g ae/ha + Sulfentrazone 130 g ai/ha",100%
same,% Control,"[6]; Trial Bridge 3, compound 560 g ae/ha + Sulfentrazone 347 g ai/ha",100%
same,% Control,"[6]; Trial Bridge 3, compound 1120 g ae/ha + Sulfentrazone 130 g ai/ha",100%
same,% Control,"[6]; Trial Bridge 3, compound 1120 g ae/ha + Sulfentrazone 347 g ai/ha",100%
same,pest or weed control at 560 g/ha,"[6]; Trial Bridge 2, compound 560 g ae/ha",95%
same,pest or weed control at 1120 g/ha,"[6]; Trial Bridge 2, compound 1120 g ae/ha",98%
same,pest or weed control at 560 g/ha,"[6]; Trial Bridge 3, compound 560 g ae/ha",95%
same,pest or weed control at 1120 g/ha,"[6]; Trial Bridge 3, compound 1120 g ae/ha",100%
same,pest or weed control at 560 g/ha,"[6]; Trial Bridge 1, compound 560 g ae/ha",98%
same,pest or weed control at 1120 g/ha,"[6]; Trial Bridge 1, compound 1120 g ae/ha",100%
same,% Control,[6]; [12],100%
same,% Control,[6]; [13],100%
same,% Control,[6]; [14],100%
same,% Control,[6]; [15],100%
same,% Control,[6]; [16],100%
same,% Control,Corn (ZEAMX); Trial Bridge 1,5%
same,% Control,Corn (ZEAMX); Trial Bridge 3,5%
same,plant injury at 560 g/ha,"Corn (ZEAMX); Zea mays, post-emergence, 504 h, Trial Bridge 1",5%
same,plant injury at 560 g/ha,"Corn (ZEAMX); Zea mays, post-emergence, 504 h, Trial Bridge 3",5%
same,plant injury at 1120 g/ha,"Corn (ZEAMX); Zea mays, post-emergence, 504 h, compound 1120 g ae/ha, Trial Bridge 3",5%
same,pest or weed control at 280 g/ha,"[7]; 168 h, 7 DAA",67.5%
same,pest or weed control at 560 g/ha,"[7]; 168 h, 7 DAA",85%
same,pest or weed control at 280 g/ha,"[7]; 336 h, 14 DAA",100%
same,pest or weed control at 560 g/ha,"[7]; 336 h, 14 DAA",100%
same,pest or weed control at 280 g/ha,"[7]; 504 h, 21 DAA",98.5%
same,pest or weed control at 560 g/ha,"[7]; 504 h, 21 DAA",99%
same,pest or weed control at 280 g/ha,"[8]; 168 h, 7 DAA",75%
same,pest or weed control at 560 g/ha,"[8]; 168 h, 7 DAA",80%
same,pest or weed control at 280 g/ha,"[8]; 336 h, 14 DAA",81.5%
same,pest or weed control at 560 g/ha,"[8]; 336 h, 14 DAA",98.5%
same,pest or weed control at 280 g/ha,"[8]; 504 h, 21 DAA",97%
same,pest or weed control at 560 g/ha,"[8]; 504 h, 21 DAA",100%
